Measurements taken from US20220002359A1, “Voltage-Gated Calcium Channel Auxilliary Subunit Alpha 2 Delta and Uses Thereof” (Novassay, S.A., priority 2017, published 2022).
Where two headings read alike, the source gives them in different places.

Legend:
[1] = target: T1, truncated recombinant α2δ-1 protein, Construct 2 (SEQ ID No. 3) (Homo sapiens, UniProt P54289); test: SPR binding of analyte to immobilized truncated α2δ-1 construct 2; details: RU400, subtracted from human IgG reference; NVA1309 at increasing concentrations, pregabalin at 500 μM
T1 construct: His tag; GST; made in house; host or cells: CHO cells (transient expression)
Experimental: Binding experiments were carried out using Surface Plasmon Resonance (SPR) technology in a Biacore instrument. Recombinant construct 1 and construct 2 were immobilized on the surface of two different flow cells (FC2 and FC3, respectively) of a Biacore CM5 optical sensor chip by covalent amine coupling chemistry, using the Biacore amine coupling kit and following the Biacore amine coupling protocol. Human IgG was immobilized to the reference flow cell FC1 as intra-assay background binding control.

[2] = target: Peptide 1 (P1; SEQ ID No. 4) comprising the gabapentin/pregabalin binding site of α2δ-1 (Homo sapiens, UniProt P54289); test: SPR binding to immobilized synthetic peptide P1; details: RU400, subtracted from blank dextran reference
Experimental: Thiol coupling allows for uniform surface presentation of the immobilized peptide molecules and provides freedom to adopt a steric conformation that is determined by the amino acid sequence of the peptide.
Sensorgram running conditions were: • Compound stock solution: 50 mM, DMSO • Compound working stock dilution: 0.5-2 mM • Running buffer: HBS-P • Flow rate: 30 μl/min

[3] = target: human voltage-gated calcium channel subunit α2δ-1 (Homo sapiens, UniProt P54289)
[4] = target: T2, α2δ-1 recombinant peptide (SEQ ID No. 5) comprising the VGCC_α2 domain (Homo sapiens, UniProt P54289); test: SPR binding to immobilized α2δ-1 recombinant peptide; details: RU400, subtracted from BSA reference; 0.5-2 mM
T2 construct: purchased CUSABIO CSB-YP004407HU; host or cells: yeast
Description: The α2δ-1 recombinant peptide comprising the VGGC_α2 domain and containing a single cysteine near the carboxy terminus, was immobilized on the surface of a Biacore CM5 optical sensor chip using the Biacore Thiol Coupling Kit following the covalent thiol coupling chemistry. This immobilization process provides a sterically more uniform attachment of the ligand molecules to the sensor chip surface than the randomized amine coupling procedure. Bovine serum albumin (BSA) was immobilized to the reference flow cell FC1 as intra-assay background binding control. Compound NVA1309 was injected as analyte at increasing concentrations and the binding reaction was monitored by generation of real time sensorgrams, presented as subtracted curves from the BSA reference (see […]).
Sensorgram running conditions were: • Compound stock solution: 50 mM, Dimethyl sulfoxide (DMSO) DMSO • Compound working dilution: 0.5-2 mM • Running buffer: HBS-P • Flow rate: 30 μl/min

[5] = target: truncated recombinant α2δ-1 protein, Construct 1 (SEQ ID No. 2) (Homo sapiens, UniProt P54289); test: SPR binding of analyte to immobilized truncated α2δ-1 construct 1; details: RU400, subtracted from human IgG reference; NVA1309 at increasing concentrations, pregabalin at 500 μM
[6] = target: T3, α2δ-1 recombinant peptide (SEQ ID No. 5) containing the VGCC_α2 domain (Homo sapiens, UniProt P54289); details: Langmuir 1:1 fit, single concentration data
Experimental: (§1) The equilibrium dissociation constant KD=kd/ka was calculated and provides a single concentration estimate of the compound target binding affinity.

[7] = target: T4, Peptide P3 (SEQ ID No. 6), carboxy terminal region of the VGGC_α2 domain of α2δ-1 (Homo sapiens, UniProt P54289); test: SPR binding to immobilized synthetic peptide P3; details: RU400, subtracted from blank dextran reference; 0.5-2 mM
T4 construct: three glycines and a terminal cysteine (Peptide 3); made in house; host or cells: chemical synthesis
Description: A synthetic peptide was constructed, representing the carboxy terminal of the VGGC_α2 domain of α2δ-1, carboxy-terminally fused to a flexible spacer consisting of three glycines and a terminal cysteine (Peptide 3; SEQ ID No. 6):
This peptide was covalently coupled via the carboxy-terminal cysteine to the surface (FC2) of a Biacore CM5 optical sensor chip using the Biacore Thiol Coupling Kit following the Biacore thiol coupling procedure. This strategy allows for uniform surface presentation of the immobilized peptide molecules and provides freedom to adopt a steric conformation determined by the amino acid sequence of the peptide. Compound NVA1309 was injected as analyte at increasing concentrations and the binding reaction was monitored by generation of real time sensorgrams, presented as subtracted curves from the blank FC1 dextran reference surface (see FIG. 13A).
Sensorgram running conditions were: • Compound stock solution: 50 mM, Dimethyl sulfoxide (DMSO) DMSO • Compound working dilution: 0.5-2 mM • Running buffer: HBS-P (Biacore) • Flow rate: 30 μl/min

[8] = target: T3, α2δ-1 recombinant peptide (SEQ ID No. 5) containing the VGCC_α2 domain; test: biochemical
Experimental: as §1

[9] = target: T5, α2δ-1 (RRR mutated to RRA) (Mus musculus, UniProt O08532, R241A); details: knock-in mutant mouse; cited from earlier work
T5 construct: host or cells: knock-in mutant mouse (in vivo)

[10] = test system: α2δ-1; details: partial sciatic ligation neuropathy, α2δ-1−/− mice; cited from earlier work
[11] = SPR binding of NVA1309 to immobilized P4-derived peptides, RU400 as % of peptide P4; details: for % BINDING (RU400) 0.5 mM: NVA1309 0.5 mM; for % BINDING (RU400) 1 mM: NVA1309 1 mM; for % BINDING (RU400) 2 mM: NVA1309 2 mM; for NVA1309 binding to the peptide, in words: compared with peptide P4; for % BINDING (RU400) mean: mean of 0.5, 1 and 2 mM NVA1309
Experimental: This peptide was covalently coupled via the carboxy-terminal cysteine to the surface (FC2) of a Biacore CM5 optical sensor chip as described in Example 4 following the Biacore thiol coupling procedure. Compound NVA1309 was injected as analyte at increasing concentrations and the binding reaction was monitored by generation of real time sensorgrams, presented as subtracted curves from the blank FC1 dextran reference surface (FIGS. 14A & 14B).
Sensorgram running conditions were: • Compound stock solution: 50 mM, Dimethyl sulfoxide (DMSO) • Compound working dilution: 0.5-2 mM • Running buffer: HBS-P • Flow rate: 30 μl/min
This peptide was covalently coupled via the carboxy-terminal cysteine to the surface (FC3) of a new Biacore CM5 optical sensor chip using the Biacore thiol coupling procedure. Peptide P4 was immobilized on FC2 as a positive reference control, flow cell FC1 was left blank as negative background binding reference. Compound NVA1309 was injected as analyte at increasing concentrations and the binding reaction was monitored by generation of real time sensorgrams as described in the previous examples and presented as subtracted curves from the blank FC1 dextran reference surface.
A series of three concentration SPR binding experiments were carried out with peptides derived from the peptide P4 sequence (SEQ ID No. 7). These peptides were designed in order to determine the significance of single peptide 4-contained (P4) amino acid residues in binding compound NVA1309. The following peptides were prepared:
Synthetic peptides were covalently coupled to optical sensor chips via the terminal cysteines following the Biacore thiol coupling procedure and SPR binding experiments were run exactly under the same conditions as described in the previous examples. Relative binding strengths of the single peptides were read from three concentration RU400 values and calculated as percentage binding of the peptide P4 reference (P4: RU400=100%). […]

[12] = P4 RU400=100%, P4 scanning (Example 6)

T3 sequence (P54289 528-668): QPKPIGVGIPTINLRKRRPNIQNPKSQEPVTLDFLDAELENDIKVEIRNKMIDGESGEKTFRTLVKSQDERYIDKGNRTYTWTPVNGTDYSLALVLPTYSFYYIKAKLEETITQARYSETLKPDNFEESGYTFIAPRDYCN
Sequence of human voltage-gated calcium channel subunit α2δ-1 (P54289 25-1103): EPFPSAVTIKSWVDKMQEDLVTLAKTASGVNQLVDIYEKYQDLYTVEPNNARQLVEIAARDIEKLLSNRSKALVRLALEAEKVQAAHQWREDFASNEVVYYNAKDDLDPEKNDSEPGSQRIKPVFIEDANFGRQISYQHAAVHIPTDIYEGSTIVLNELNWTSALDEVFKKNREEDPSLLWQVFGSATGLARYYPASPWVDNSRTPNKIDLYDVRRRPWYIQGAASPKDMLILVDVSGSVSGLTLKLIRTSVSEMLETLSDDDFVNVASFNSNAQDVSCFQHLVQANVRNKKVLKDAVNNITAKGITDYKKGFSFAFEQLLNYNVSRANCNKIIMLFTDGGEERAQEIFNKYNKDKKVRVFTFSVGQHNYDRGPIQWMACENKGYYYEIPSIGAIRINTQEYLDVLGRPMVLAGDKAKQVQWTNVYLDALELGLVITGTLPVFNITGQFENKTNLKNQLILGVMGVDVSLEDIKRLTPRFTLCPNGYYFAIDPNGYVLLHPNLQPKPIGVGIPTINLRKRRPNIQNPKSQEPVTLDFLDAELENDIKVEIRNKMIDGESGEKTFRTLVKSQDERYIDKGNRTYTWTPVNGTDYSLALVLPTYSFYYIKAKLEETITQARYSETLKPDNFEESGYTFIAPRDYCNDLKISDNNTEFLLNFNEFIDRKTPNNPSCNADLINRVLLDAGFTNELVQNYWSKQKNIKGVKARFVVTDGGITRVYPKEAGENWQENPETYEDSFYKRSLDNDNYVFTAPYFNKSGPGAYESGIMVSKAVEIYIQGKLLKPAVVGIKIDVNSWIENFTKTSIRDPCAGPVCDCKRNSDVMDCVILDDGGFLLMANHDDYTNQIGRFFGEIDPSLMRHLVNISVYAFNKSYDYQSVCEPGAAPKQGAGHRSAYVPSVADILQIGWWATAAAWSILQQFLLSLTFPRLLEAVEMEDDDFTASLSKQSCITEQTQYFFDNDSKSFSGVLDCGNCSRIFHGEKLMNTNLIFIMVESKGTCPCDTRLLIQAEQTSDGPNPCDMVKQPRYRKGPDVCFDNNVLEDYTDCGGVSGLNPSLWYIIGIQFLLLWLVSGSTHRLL
Sequence of Peptide 1 (P1; SEQ ID No. 4) comprising the gabapentin/pregabalin binding site of α2δ-1 (P54289 with tags, fused parts or gaps limits assumed): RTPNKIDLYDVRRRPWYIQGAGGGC
T1 sequence (P54289 with tags, fused parts or gaps): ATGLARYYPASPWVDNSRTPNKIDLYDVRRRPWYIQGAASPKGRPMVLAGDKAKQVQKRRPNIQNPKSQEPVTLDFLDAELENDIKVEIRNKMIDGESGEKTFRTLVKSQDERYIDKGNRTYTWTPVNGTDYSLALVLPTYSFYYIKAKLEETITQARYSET
Sequence of truncated recombinant α2δ-1 protein, Construct 1 (SEQ ID No. 2) (P54289 with tags, fused parts or gaps): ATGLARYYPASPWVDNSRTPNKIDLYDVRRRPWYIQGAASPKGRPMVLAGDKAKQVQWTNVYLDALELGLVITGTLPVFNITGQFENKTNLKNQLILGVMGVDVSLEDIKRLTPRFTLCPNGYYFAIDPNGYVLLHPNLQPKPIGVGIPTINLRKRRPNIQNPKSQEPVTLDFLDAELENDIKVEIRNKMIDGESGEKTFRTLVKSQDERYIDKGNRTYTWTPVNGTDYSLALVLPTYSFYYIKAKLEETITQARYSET
T2 sequence (P54289 528-668): as the sequence (P54289 528-668) above
T5 sequence (O08532 25-1103 R241A): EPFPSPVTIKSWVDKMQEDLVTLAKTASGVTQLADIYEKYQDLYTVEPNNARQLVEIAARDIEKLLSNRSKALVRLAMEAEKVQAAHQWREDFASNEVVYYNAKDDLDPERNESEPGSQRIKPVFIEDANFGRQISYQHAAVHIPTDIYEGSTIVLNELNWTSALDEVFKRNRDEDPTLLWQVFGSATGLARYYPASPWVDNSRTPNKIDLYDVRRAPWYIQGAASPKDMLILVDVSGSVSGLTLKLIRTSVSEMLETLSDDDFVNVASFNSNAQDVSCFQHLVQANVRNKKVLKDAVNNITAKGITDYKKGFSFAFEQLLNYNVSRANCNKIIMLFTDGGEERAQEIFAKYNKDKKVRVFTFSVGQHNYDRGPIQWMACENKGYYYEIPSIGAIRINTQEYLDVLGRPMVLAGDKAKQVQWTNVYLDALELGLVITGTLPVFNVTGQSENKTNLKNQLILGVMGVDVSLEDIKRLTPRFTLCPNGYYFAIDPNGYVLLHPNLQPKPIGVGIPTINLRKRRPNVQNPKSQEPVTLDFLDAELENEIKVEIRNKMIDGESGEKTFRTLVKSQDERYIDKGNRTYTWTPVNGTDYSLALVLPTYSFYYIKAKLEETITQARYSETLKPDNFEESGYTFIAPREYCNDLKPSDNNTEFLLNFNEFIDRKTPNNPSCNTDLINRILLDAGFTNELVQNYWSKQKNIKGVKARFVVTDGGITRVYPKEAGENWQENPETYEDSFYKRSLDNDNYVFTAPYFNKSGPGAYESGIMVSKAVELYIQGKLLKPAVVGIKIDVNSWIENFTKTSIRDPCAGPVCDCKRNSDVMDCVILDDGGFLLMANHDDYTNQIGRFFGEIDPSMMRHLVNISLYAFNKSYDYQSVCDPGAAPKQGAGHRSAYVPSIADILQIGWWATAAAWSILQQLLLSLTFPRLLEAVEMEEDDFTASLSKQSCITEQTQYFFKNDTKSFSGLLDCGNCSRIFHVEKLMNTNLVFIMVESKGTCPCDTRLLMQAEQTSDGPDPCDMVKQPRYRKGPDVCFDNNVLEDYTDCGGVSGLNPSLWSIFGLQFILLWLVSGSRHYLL
T5 sequence (O08532 958-1103 partner limits assumed): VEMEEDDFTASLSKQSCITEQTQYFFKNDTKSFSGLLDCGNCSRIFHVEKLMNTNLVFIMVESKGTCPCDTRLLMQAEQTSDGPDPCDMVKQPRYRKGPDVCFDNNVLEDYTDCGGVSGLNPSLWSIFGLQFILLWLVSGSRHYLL
T4 sequence (P54289 with tags, fused parts or gaps limits assumed): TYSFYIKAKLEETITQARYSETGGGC

Compound	% BINDING (RU400) 0.5 mM [11, 12] [%]	% BINDING (RU400) 1 mM [11, 12] [%]	% BINDING (RU400) 2 mM [11, 12] [%]	% BINDING (RU400) mean ([11]; P4=100%, Example 6) [%]	% BINDING (RU400) 0.5 mM ([11]; P4=100%, Example 7) [%]	% BINDING (RU400) 1 mM ([11]; P4=100%, Example 7) [%]	% BINDING (RU400) 2 mM ([11]; P4=100%, Example 7) [%]	% BINDING (RU400) mean ([11]; P4=100%, Example 7) [%]	further results
CCC1=C[C@@H]2[C@H](C1)C[C@]2(CN)Cc1nnn[nH]1 [NVA1309, [(1R,5S,6S)-3-Ethyl-6-(1H-tetrazol-5-ylmethyl)-6-bicyclo[3.2.0]hept-3-enyl]methanamine]	–	–	–	–	–	–	–	–	SPR binding to immobilized construct 2 [1]: concentration-dependent binding; SPR binding to immobilized peptide P1 [2]: concentration-dependent binding; IC50 ([3]; recombinant membranes over-expressing the human α2δ-1 subunit (PCT/EP2014/077937); read-out: IC50 of binding; cited from earlier work): 2.1 nM; SPR binding to immobilized α2δ-1 recombinant peptide [4]: concentration-dependent binding; SPR binding to immobilized construct 1 [5]: concentration-dependent binding; kd [6]: 0.00061 s⁻¹; SPR binding to immobilized peptide P3 [7]: concentration dependent binding; Kd [8]: 33.8 nM; kon ([8]; read-out: ka): 18000 M⁻¹ s⁻¹
CC(C)C[C@H](CN)CC(=O)O [Pregabalin, reference compound]	–	–	–	–	–	–	–	–	SPR binding to immobilized construct 2 [1]: lack of pregabalin binding; SPR binding to immobilized peptide P1 [2]: no positive SPR signal; IC50 ([3]; read-out: IC50 of binding; recombinant membranes over-expressing the human α2δ-1 subunit (PCT/EP2014/077937); cited from earlier work): 23 nM; SPR binding to immobilized construct 1 [5]: lack of pregabalin binding; alleviating chronic pain resulting from nerve injury [9]: no longer effective; ability to alleviate mechanical hypersensitivity [10]: lost
AQTITEELKAKIGGGC (Peptide P8, Inverse peptide P4 + GGGC anchor)	3	2	2	2.3	–	–	–	–	NVA1309 binding to the peptide, in words [11]: lack of binding
ETITQARYSETLKPGGGC (Peptide P6, carboxy-terminal VGGC_a2 region (IV) + GGGC anchor) [C-terminal P4 extension + GGGC anchor]	9	7	9	8.3	–	–	–	–	NVA1309 binding to the peptide, in words [11]: significant loss of NVA1309 binding capacity
IAAALEETITQAGGGC (Peptide P10, P4 analogue - positively charged side chains A-substituted + GGGC anchor)	4	4	4	4	–	–	–	–	–
IAAKLEETITQAGGGC (Peptide P13, P4 analogue with Lysine in position 2 (K) substituted by Alanine (A) + GGGC anchor) [P4 analogue, K2 A-substituted + GGGC anchor]	–	–	–	–	133	88	90	104	–
IKAALEETITQAGGGC (Peptide P14, P4 analogue with Lysine in position 4 (K) substituted by Alanine (A) + GGGC anchor) [P4 analogue, K4 A-substituted + GGGC anchor]	–	–	–	–	0	11	6	6	–
IKAKGGGC (Peptide P15, P4 analogue containing only the amino-terminal part of P4 + GGGC anchor)	–	–	–	–	19	25	26	23	–
IKAKLAATITQAGGGC (Peptide P11, P4 analogue - negatively charged side chains A-substituted + GGGC anchor)	23	22	25	23.3	–	–	–	–	–
IKAKLEEAIAQAGGGC (Peptide P12, P4 analogue - polar side chains A-substituted + GGGC anchor)	14	15	17	15.3	–	–	–	–	–
IKAKLEETITQAGGGC (Peptide P4, carboxy-terminal VGGC_a2 region (II) + GGGC anchor) [carboxy-terminal VGGC_α2 region (II) + GGGC anchor, positive control]	100	100	100	100	100	100	100	100	–
LRVRIDDSLSNVGGGC (Peptide P9, P4 analogue - all aa substituted by most similar ones + GGGC anchor)	1	1	2	1.3	–	–	–	–	–
